Calls of active or inactive are those of the source. How the calls were made is not given here.

In the experiment the test system is in vivo angiogenesis, blood vessel count. In words: angiogenesis inhibition in living animals, in vivo study, HTS (AID 732).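 Further: zebrafish embryos dosed at one day post fertilization; 0% = reference inhibitor and 100% = plate mean.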 As to conditions: stronger effect = lower value;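 tested at 30 µM in the well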.
On to `NC(=O)CN1CCCC1=O`, for which the vessel count % control is 99.2% (inactive).
As to `CS(=N)(=O)CC[C@H](N)C(=O)O` (stereo partly drawn), the vessel count % control is 99.4% (inactive).
On to `CN1C2CCC1CC(OC(c1ccccc1)c1ccccc1)C2` (stereo not drawn), for which the vessel count % control is 91.6% (inactive).
The figure for `C[N+](C)(C)CCOC(=O)CCC(=O)OCC[N+](C)(C)C` is 94.4% (inactive); for `CC(CN(C)C)CN1c2ccccc2CCc2ccccc21` (stereo not drawn) it is 97.1% (inactive).
`CNC(=O)[C@H]1O[C@@H](n2cnc3c(N)ncnc32)C(O)[C@H]1O` (stereo partly drawn): the vessel count % control was 118% (inactive).
As for `COc1ccc2c(c1)CCC1C2CC[C@@]2(C)C1CC[C@@H]2NCCCCCCN1C(=O)C=CC1=O` (stereo partly drawn), the vessel count % control was 0% (inactive).
As to `COCCOC(=O)C1=C(C)NC(C)=C(C(=O)OC(C)C)C1c1cccc([N+](=O)[O-])c1` (stereo not drawn), the vessel count % control was 95.6% (inactive).
Regarding `CN(C)c1nc(N(C)C)nc(N(C)C)n1`, the vessel count % control is 86% (inactive).
For the compound `C[C@H](Cc1ccccc1)Nc1ncnc2c1ncn2[C@@H]1O[C@H](CO)[C@H](O)C1O` (stereo partly drawn), the vessel count % control is 99.9% (inactive).
`NC(=O)CI`: the vessel count % control is 108% (inactive).
For `CCC1(O)CC2CN(CCc3c([nH]c4ccccc34)[C@@](C(=O)OC)(c3cc4c(cc3OC)N(C=O)C3[C@]45CCN4CC=C[C@@](CC)([C@@H](OC(C)=O)[C@]3(O)C(=O)OC)[C@H]45)C2)C1` (stereo partly drawn), the vessel count % control was 109% (inactive).
The figure for `NC(=O)c1cc(N2CC2)c([N+](=O)[O-])cc1[N+](=O)[O-]` is 107% (inactive).
For `Clc1cccc(Cl)c1NC1=NCCN1`, the vessel count % control is 121% (inactive).
Take `CC[N+](C)(C)Cc1ccccc1Br`: the vessel count % control is 116% (inactive).
Turning to `CN(Cc1cnc2nc(N)nc(N)c2n1)c1ccc(C(=O)N[C@@H](CCC(=O)O)C(=O)O)cc1`, the vessel count % control is 112% (inactive).
`O=C1C(c2c(O)[nH]c3c(Cl)cc(Cl)cc23)=Nc2ccc(Br)cc21`: the vessel count % control is 123% (inactive).
For `NC/C=C/C(=O)O`, the vessel count % control was 97.5% (inactive).
`O=C(CCCN1CCC(O)(c2cccc(C(F)(F)F)c2)CC1)c1ccc(F)cc1`: the vessel count % control is 60.2% (inactive).
Regarding `CN(C)[C@@H]1C(=O)C(C(N)=O)=C(O)[C@@]2(O)C(=O)C3=C(O)c4c(O)ccc(Cl)c4[C@@H](O)[C@H]3C[C@@H]12`, the vessel count % control is 87.7% (inactive).
As for `OC[C@H]1O[C@@H](n2cnc3c(NC4CCCC4)ncnc32)C(O)[C@H]1O` (stereo partly drawn), the figure is 94.3% (inactive); as for `Cc1ccc(C(=O)O[C@H](C(=O)O)[C@H](OC(=O)c2ccc(C)cc2)C(=O)O)cc1` (tested in a mixture with another compound), 109% (inactive); as for `Cc1ccccc1C(OCCN(C)C)c1ccccc1` (stereo not drawn), 108% (inactive).
With `Nc1ncnc2c1ncn2[C@@H]1O[C@H](COP(=O)(O)OP(=O)(O)OP(=O)(O)OP(=O)(O)OC[C@@H]2O[C@H](n3cnc4c(N)ncnc43)C(O)[C@@H]2O)[C@H](O)C1O` (stereo partly drawn), the vessel count % control was 89.7% (inactive).
The figure for `CC(C)NCC(O)c1cc(O)cc(O)c1` (stereo not drawn) is 91.8% (inactive); for `Clc1ccc(Cn2c(CN3CCCC3)nc3ccccc32)cc1` it is 81.8% (inactive).
For `NC(=S)c1ccc[n+]([C@@H]2O[C@@H](COP(=O)([O-])OP(=O)(O)OC[C@H]3O[C@@H](n4cnc5c(N)ncnc54)C(OP(=O)(O)O)[C@H]3O)C(O)C2O)c1` (stereo partly drawn), the vessel count % control is 101% (inactive).
On to `O=c1oc(Cl)c(Cl)c2ccccc12`, for which the vessel count % control was 104% (inactive).
As for `CP(=O)(O)CCCN`, the figure is 76.1% (inactive).
For `O=C(O)C1=CCCNC1`, the vessel count % control is 114% (inactive).
In the case of `CC[C@H](C)C(=O)O[C@H]1CCC=C2C=C[C@H](C)[C@H](CC[C@@H]3C[C@@H](O)CC(=O)O3)[C@H]21`, the vessel count % control was 88.5% (inactive).
As for `CN(C)CCCN1c2ccccc2CCc2ccc(Cl)cc21`, the figure is 85.2% (inactive); as for `FC(F)(F)c1cc(CO[C@H]2CCCN[C@H]2c2ccccc2)cc(C(F)(F)F)c1`, 91.5% (inactive); as for `C=C[C@H]1CN2CCC1C[C@H]2[C@H](O)c1ccnc2ccc(OC)cc12` (stereo partly drawn), 98% (inactive).
The figure for `CCCN(CCC)C(=O)Cc1c(-c2ccc(Cl)cc2)nc2c(Cl)cc(Cl)cn12` is 89.9% (inactive); for `O=C(/C=C/c1ccc(O)cc1)c1ccc(O)cc1O` it is 98.4% (inactive).
Regarding `c1ccc2c(c1)[I+]c1ccccc1-2`, the vessel count % control was 112% (inactive).
As to `C=CCN1C[C@@H](C)N([C@H](c2ccc(C(=O)N(CC)CC)cc2)c2cccc(OC)c2)C[C@@H]1C`, the vessel count % control is 85.2% (inactive).
As for `COc1cc([C@@H]2c3cc4c(cc3[C@H](O)C3COC(=O)[C@@H]32)OCO4)cc(OC)c1OC` (stereo partly drawn), the figure is 88.6% (inactive).
As for `O=C(O)c1cc(=O)c2ccc(Cl)cc2[nH]1`, the figure is 110% (inactive); as for `O=c1[nH]c2ccccc2c2ccccc12`, 103% (inactive).
As for `CC(=O)Oc1cc(C(C)C)c(OCCN(C)C)cc1C`, the figure is 109% (inactive).
Consider `Cc1cc(NC(=O)Nc2ccc3c(ccn3C)c2)sn1`, for which the vessel count % control is 112% (inactive).
With `CCN(CC)CCOC(=O)C1(C2CCCCC2)CCCCC1`, the vessel count % control was 86.4% (inactive).
As for `O=C(Nc1cccc(C(=O)Nc2ccc(S(=O)(=O)O)c3cc(S(=O)(=O)O)cc(S(=O)(=O)O)c23)c1)Nc1cccc(C(=O)Nc2ccc(S(=O)(=O)O)c3cc(S(=O)(=O)O)cc(S(=O)(=O)O)c23)c1`, the figure is 88.2% (inactive); as for `CCCCS(=N)(=O)CC[C@H](N)C(=O)O` (stereo partly drawn), 93% (inactive); as for `CO/N=C(\C(=O)N[C@@H]1C(=O)N2C(C(=O)O)=C(CSc3nc(=O)c(O)nn3C)CSC12)c1csc(N)n1` (stereo partly drawn), 117% (inactive).
In the case of `CC(COc1ccc(/C=C/c2ccccc2)cc1)[N+](C)(C)C` (stereo not drawn), the vessel count % control was 106% (inactive).
As for `NCCC1CCCC(CCN)N1` (stereo not drawn), the vessel count % control is 115% (inactive).
Turning to `NCCS(=O)(=O)O`, the vessel count % control is 96.7% (inactive).
`NC(=S)NCCCC(N)C(=O)O` (stereo not drawn): the vessel count % control was 119% (inactive).
Regarding `COc1ccccc1N1CCN(CCN(C(=O)c2ccc(F)cc2)c2ccccn2)CC1`, the vessel count % control was 103% (inactive).
The figure for `CCCCCCCCCCCCCCC[C@H](O)[C@H](N)CO` is 101% (inactive).
As to `O=C1NCC2(CCN(CCc3ccccc3)CC2)O1`, the vessel count % control was 110% (inactive).
On to `O=C(O)CCC/C=C\C[C@@H]1[C@@H](/C=C/[C@H](O)C2Cc3ccccc3C2)[C@@H](F)C[C@@H]1O`, for which the vessel count % control is 121% (inactive).
The figure for `NC(=O)CNCCC(c1ccccc1)c1ccccc1` is 119% (inactive); for `C[C@H]1OC[C@@H](C[N+](C)(C)C)O1` it is 115% (inactive).
The figure for `N[C@H]1CONC1=O` is 93% (inactive); for `Clc1cccc(N2CCNCC2)c1` it is 101% (inactive).
For the compound `Clc1ccccc1C(c1ccccc1)(c1ccccc1)n1ccnc1`, the vessel count % control is 114% (inactive).
On to `NCC(O)(CS(=O)(=O)O)c1ccc(Cl)cc1` (stereo not drawn), for which the vessel count % control is 94.5% (inactive).
As to `CNC1(C)C2CCC(C2)C1(C)C` (stereo not drawn), the vessel count % control is 107% (inactive).
On to `O=S1(=O)N(CCN2CC=C(c3c[nH]c4cc(F)ccc34)CC2)c2cccc3c2N1CCC3`, for which the vessel count % control was 148% (inactive).
The figure for `C#CCN(C)Cc1ccccc1` is 91.4% (inactive); for `COc1cc2ncnc(Nc3cccc(Cl)c3)c2cc1OC` it is 34.6%; for `CN1CCC23CCCC[C@H]2C1Cc1ccc(O)cc13` (stereo partly drawn) it is 100% (inactive).
`CC(=O)c1c(O)c(C)c(O)c(Cc2c(O)c3c(c(C(=O)/C=C/c4ccccc4)c2O)OC(C)(C)C=C3)c1O`: the vessel count % control was 0% (inactive).
Take `Nc1nc2[nH]c(=O)cnc2c(=O)[nH]1`: the vessel count % control was 140% (inactive).
With `CN1C[C@H](C(=O)N[C@]2(C)O[C@@]3(O)[C@@H]4CCCN4C(=O)[C@H](Cc4ccccc4)N3C2=O)C[C@@H]2c3cccc4[nH]cc(c34)C[C@H]21`, the vessel count % control is 98.7% (inactive).
For the compound `N#Cc1c(-c2ccccc2)no[n+]1[O-]`, the vessel count % control was 120% (inactive).
Take `Cn1c(=O)c2c(nc(/C=C/c3cccc(Cl)c3)n2C)n(C)c1=O`: the vessel count % control is 72.9% (inactive).
In the case of `Oc1[nH]c2c(Cl)cc(Cl)cc2c1C1=Nc2ccc(Br)cc2/C1=N\OCCBr`, the vessel count % control is 121% (inactive).
For `N#CC(=Cc1ccc(O)c(O)c1)C(N)=S`, the vessel count % control is 118% (inactive).
For `CCCC(=O)NCCc1c2n(c3ccc(OC)cc13)CCCc1ccccc1-2`, the vessel count % control was 92.5% (inactive).
The figure for `Oc1[nH]c2ccccc2c1C1=Nc2ccc(Br)cc2/C1=N\OCCBr` is 79.9% (inactive); for `Fc1ccc(C(c2ccc(F)cc2)N2CCN(C/C=C/c3ccccc3)CC2)cc1` it is 91.5% (inactive); for `CN(C)C(N)=NCCC[C@H](N)C(=O)O` it is 93.3% (inactive).
With `N[C@@H](COP(=O)(O)O)C(=O)O`, the vessel count % control is 105% (inactive).
`O=C1C(c2c(O)[nH]c3c(Cl)cc(Cl)cc23)=Nc2ccccc21`: the vessel count % control is 60.2% (inactive).
The figure for `Ic1ccc(N2CCN(Cc3c[nH]c4ncccc34)CC2)cc1` is 99.4% (inactive).
With `Cn1ccc2cc3c(cc21)CCN3C(=O)Nc1cccnc1`, the vessel count % control is 88% (inactive).
`Cc1nc2c(OCc3ccccc3)cccn2c1CC#N`: the vessel count % control was 120% (inactive).
The figure for `CCCCCN(CCCCC)C(=O)C(CCC(=O)O)NC(=O)c1ccc(Cl)c(Cl)c1` (stereo not drawn) is 81.3% (inactive).

The record behind these values is PubChem BioAssay AID732 (Emory University Molecular Libraries Screening Center, 2007).
